Broadly, the IC50 is the point on the concentration scale where inhibition reaches its midpoint.

Structures are written as SMILES.

Among the data in patent US11919910B2, “Spiropyrrolidine derived antiviral agents” (ENANTA PHARMACEUTICALS, INC., priority 2021, dated 2024) are IC50 and stability in solution values, retold here.

The target in one data set is SARS-CoV-2 3CL-protease (Severe acute respiratory syndrome coronavirus 2, UniProt P0DTD1). The data set can be described thus: SARS-CoV-2 3C-like (3CL) protease fluorescence assay (FRET). In kind it is biochemical. The settings on record: recombinant SARS-CoV-2 3CL-protease 10 nM, 30 min preincubation at RT, substrate 40 μM, run in duplicate.
On to `CC(C)C[C@@H](C(=O)N1C[C@]2(C[C@H]1C(=O)c1nc3ccccc3s1)C(=O)Nc1ccccc12)N(C)C(=O)c1cc2c(F)cc(F)cc2[nH]1` [Example 1], for which the IC50 was under 1 µM. Take `CC(C)C[C@@H](C(=O)N1C[C@]2(C[C@@H]1C(=O)c1nc3ccccc3s1)C(=O)Nc1ccccc12)N(C)C(=O)c1cc2c(F)cc(F)cc2[nH]1` [Example 2]: the IC50 was over 10 µM. For `CC(C)C[C@@H](C(=O)N1C[C@]2(C[C@H]1C(=O)c1nc3ccccc3s1)C(=O)Nc1ccccc12)N(C)C(=O)c1cc2c(F)cc(F)c(F)c2[nH]1` [Example 3], the concentration for half-maximal inhibition (IC50) was over 10 µM. In the case of `CC(C)C[C@@H](C(=O)N1C[C@]2(C[C@@H]1C(=O)c1nc3ccccc3s1)C(=O)Nc1ccccc12)N(C)C(=O)c1cc2c(F)cc(F)c(F)c2[nH]1` [Example 4], the IC50 was over 10 µM. Take `CC(C)C[C@@H](C(=O)N1C[C@]2(C[C@H]1C(=O)c1nc3ccccc3s1)C(=O)Nc1ccccc12)N(C)C(=O)OCc1ccccc1` [Example 5]: the IC50 was over 10 µM. On to `CC(C)C[C@@H](C(=O)N1C[C@]2(C[C@H]1C(=O)c1nc3ccccc3s1)C(=O)Nc1ccccc12)N(C)C(=O)[C@H](C)NC(=O)OCc1ccccc1` [Example 6], for which the IC50 was under 1 µM.

Tested on in the next data set: not given
Assay: not given
Conditions: not given
The data set is classed as physicochemical. How it is done: Step 7: Compound (3-6) (80 mg, 0.167 mmol) and 4,6,7-trifluoro-1H-indole-2-carboxylic acid (36.0 mg, 0.167 mmol) were dissolved in CH2Cl2 (1.393 ml) and DMF (0.279 ml) at 0° C. 4-methylmorpholine (55.1 μl, 0.501 mmol) and HATU (66.7 mg, 0.176 mmol) were added. The mixture was stirred at 0° C. for 3 h, diluted with DCM, and washed with 5% NaHCO3. The organic layer was washed with brine, dried over Na2SO4, and concentrated in vacuo. The crude was purified by chromatography on silica gel (ISCO 4 g) using ethyl acetate/cyclohexane (0-60%) to give a product as a light yellow oil (3-7) (60 mg, 53%). LC-MS, ES−: 674.2 [M-1]. Step 8: To a solution of (3-7) (60 mg, 0.089 mmol) in DCM (2 ml) at 0° C. was added Dess-Martin periodinane (56.5 mg, 0.133 mmol). The mixture was stirred at 0° C. for 3 h, quenched with 10% Na2S2O3, stirred for another 15 min, and extracted with DCM. The combined organic layers were washed with 10% Na2S2O3, Sat. NaHCO3, brine, dried over Na2SO4, and concentrated.
Turning to `CC(C)C[C@@H](C(=O)N1C[C@]2(C[C@H]1C(=O)c1nc3ccccc3s1)C(=O)Nc1ccccc12)N(C)C(=O)c1cc2c(F)cc(F)c(F)c2[nH]1` [Example 3], the stability in solution entry is “not stable in solution”.
